Results: US20240115549A1, “TREATMENT OF MENTAL DISORDERS” (GH Research Ireland Limited, priority 2022, published 2024)
“And” between values parts separate entries of the source, which are not always exact repeats. Equal entries are not always repeated. “Also recorded” adds a separate entry of the source.

System: patients with postpartum depression (PPD)
Assay: Clinical trial of inhaled 5-MeO-DMT in patients with postpartum depression
Format: in vivo, human
Details: individual PPD patient
Protocol: The single-arm, open-label clinical trial will involve 15 adult female patients with clinically diagnosed postpartum depression (PPD).
The second dose (12 mg) will only be administered if: • a. A peak experience (total score of 275) has not been achieved following the 6 mg dose, and • b. The 6 mg dose was safe and well-tolerated according to the investigator, • c. Any psychoactive effects (PsE) of the prior dose have subsided, and • d. Pre-dose vital parameters and forced expiratory volume in one second (FEV1) are in normal range, or if outside of the normal range, are not clinically significant according to the investigator. • 3. Similarly, a third dose (18 mg) will only be administered if: • a. A peak experience (total score of 275) has not been achieved following the 12 mg dose, and • b. The 12 mg dose was safe and well-tolerated according to the investigator, and • c. Any PsE of the prior dose have subsided, and • d. Pre-dose vital parameters and forced expiratory volume in one second (FEV1) are in normal range, or if outside of the normal range, are not clinically significant according to the investigator.
The patients will be assessed for a peak psychedelic experience (based on a patient-scored visual analogue scale, the PE scale), sedation, and other endpoints after dosing. Follow-up visits are planned for Day 1, and Day 7 after the dosing day.
The following criteria must be met by all patients considered for clinical trial participation: • 1. Is female and in the age range between 18 and 45 years (inclusive) at screening. • 2. Has a body mass index (BMI) in the range of 18.5 and 35 kg/m^2 (inclusive) at screening. • 3. Meets the trial criteria for PPD as assessed by a trial psychiatrist or registered psychologist: • a. Diagnosis of Major Depressive Disorder without psychotic features, confirmed by the Mini-International Neuropsychiatric Interview (MINI), with peri-partum onset that began no earlier than gestation and no later than the first 4 weeks postpartum. • b. Has a Montgomery-Åsberg Depression Rating Scale (MADRS) total score of equal to or greater than 28 at screening and pre-dose on Day 0. • 6. […] Patients must have a negative pregnancy test at screening and on the pre-test day (Day −1). • 5. Is willing to delay start of other antidepressant or anxiety medication until after the end of the trial at Day 7 and agrees to keep any psychotherapy unchanged during the trial.
A potential patient who meets any of the following key exclusion criteria will be excluded from participation in this trial: • 1. Has, based on history, psychiatric assessment, and evaluation of the MINI, a current or prior diagnosis of bipolar disorder, a manic or hypomanic episode, a psychotic disorder, Major Depressive Disorder (MDD) or other mood disorder with psychotic features, obsessive compulsive disorder, post-traumatic stress disorder (PTSD), autism spectrum disorder, borderline personality disorder, schizophrenia, delusional disorder, paranoid personality disorder, schizoaffective disorder, clinically significant intellectual disability, or any other psychiatric comorbidity that renders the patient unsuitable for the trial according to the investigator's judgment. • 2. Has one or more first or second degree relatives with a current or previously diagnosed bipolar disorder, psychotic disorder or other mood disorder (including MDD) with psychotic features. • 3. Is in the judgement of a trial psychiatrist or registered psychologist, at significant risk for suicide based on history, psychiatric assessment, and evaluation of suicidal ideation and suicidal behaviour based on the Columbia-Suicide Severity Rating Scale (C-SSRS). • 4. Has taken anti-depressive medication within 14 days or 5 half-lives (whichever is longer) prior to dosing (exception: within the last 5 weeks in the case of fluoxetine). • 5.

COc1ccc2[nH]cc(CCN(C)C)c2c1 [5-MeO-DMT]
Reported adverse events: mild, short-lasting and resolved spontaneously | Standard criteria for MADRS response (>=50% improvement) and remission (total <=10): fulfilled | Tolerability of inhalation procedure / regimen (6 mg then 12 mg): well tolerated with no inhalation-related adverse events; also recorded: well tolerated | MADRS apparent sadness improvement (2 h): 5 and 4 | MADRS apparent sadness score (2 h): 0 | MADRS concentration difficulties improvement (2 h): 0 and 4 | MADRS concentration difficulties score (2 h): 0 | MADRS inability to feel improvement (2 h): 3 and 4 | MADRS inability to feel score (2 h): 0 | MADRS inner tension improvement (2 h): 5 and 4 | MADRS inner tension score (2 h): 0 | MADRS lassitude improvement (2 h): 3 and 4 | MADRS lassitude score (2 h): 0 | MADRS pessimistic thoughts improvement (2 h): 4 | MADRS pessimistic thoughts score (2 h): 0 | MADRS reduced appetite improvement (2 h): 0 and 6 | MADRS reduced appetite score (2 h): 0 | MADRS reduced sleep improvement (2 h): 0 | MADRS reported sadness improvement (2 h): 4 and 5 | MADRS reported sadness score (2 h): 0 | MADRS suicidal thoughts improvement (2 h): 0 and 1 | MADRS suicidal thoughts score (2 h): 0 | MADRS reduced sleep score (2 h (baseline carried forward)): 5 | BPRS anxiety improvement (Day 1): 6 and 5 | BPRS anxiety score (Day 1): 1 | BPRS blunted affect improvement (Day 1): 0 and 4 | BPRS blunted affect score (Day 1): 1 | BPRS conceptual disorganization improvement (Day 1): 0 and 3 | BPRS conceptual disorganization score (Day 1): 1 | BPRS depressive mood improvement (Day 1): 5 and 4 | BPRS depressive mood score (Day 1): 1 | BPRS disorientation improvement (Day 1): 0 | BPRS disorientation score (Day 1): 1 | BPRS emotional withdrawal improvement (Day 1): 4 and 5 | BPRS emotional withdrawal score (Day 1): 1 | BPRS excitement improvement (Day 1): 1 and 0 | BPRS excitement score (Day 1): 1 | BPRS grandiosity improvement (Day 1): 0 | BPRS grandiosity score (Day 1): 1 | BPRS guilt feelings improvement (Day 1): 5 | BPRS guilt feelings score (Day 1): 1 | BPRS hallucinatory behaviour improvement (Day 1): 0 | BPRS hallucinatory behaviour score (Day 1): 1 | BPRS hostility improvement (Day 1): 0 and 3 | BPRS hostility score (Day 1): 1 | BPRS mannerisms and posturing improvement (Day 1): 0 | BPRS mannerisms and posturing score (Day 1): 1 | BPRS motor retardation improvement (Day 1): 0 and 2 | BPRS motor retardation score (Day 1): 1 | BPRS somatic concern improvement (Day 1): 5 and 0 | BPRS somatic concern score (Day 1): 1 | BPRS suspiciousness improvement (Day 1): 0 | BPRS suspiciousness score (Day 1): 1 | BPRS tension improvement (Day 1): 5 and 3 | BPRS tension score (Day 1): 1 | BPRS uncooperativeness improvement (Day 1): 0 | BPRS uncooperativeness score (Day 1): 1 | BPRS unusual thought content improvement (Day 1): 0 | BPRS unusual thought content score (Day 1): 1 | MADRS apparent sadness improvement (Day 1): 5 and 4 | MADRS apparent sadness score (Day 1): 0 | MADRS concentration difficulties improvement (Day 1): 0 and 4 | MADRS concentration difficulties score (Day 1): 0 | MADRS inability to feel improvement (Day 1): 3 and 4 | MADRS inability to feel score (Day 1): 0 | MADRS inner tension improvement (Day 1): 5 and 4 | MADRS inner tension score (Day 1): 0 | MADRS lassitude improvement (Day 1): 3 and 4 | MADRS lassitude score (Day 1): 0 | MADRS pessimistic thoughts improvement (Day 1): 4 | MADRS pessimistic thoughts score (Day 1): 0 | MADRS reduced appetite improvement (Day 1): 0 and 6 | MADRS reduced appetite score (Day 1): 0 | MADRS reduced sleep improvement (Day 1): 5 | MADRS reduced sleep score (Day 1): 0 | MADRS reported sadness improvement (Day 1): 4 and 5 | MADRS reported sadness score (Day 1): 0 | MADRS suicidal thoughts improvement (Day 1): 0 and 1 | MADRS suicidal thoughts score (Day 1): 0 | BIMF TOTAL score (Day 7): 105 and 104 | BIMF item 1 (I am a good mother) score (Day 7): 6 and 5 | BIMF item 2 (I feel rested) score (Day 7): 2 and 4 | BIMF item 3 (comfortable with the way I've chosen to feed my baby) score (Day 7): 6 | BIMF item 4 (My baby and I understand each other) score (Day 7): 5 and 6 | BIMF item 5 (able to relax and enjoy time with my baby) score (Day 7): 6 | BIMF item 6 (people I can trust to care for my baby when I need a break) score (Day 7): 6 and 5 | BIMF item 8 (getting enough adult interaction) score (Day 7): 6 and 4 | BIMF item 9 (getting enough encouragement from other people) score (Day 7): 6 and 5 | BIMF item 10 (I trust my own feelings (instincts)) score (Day 7): 6 | BIMF item 11 (a little time each week to do something for myself) score (Day 7): 6 and 4 | BIMF item 12 (taking good care of my baby's physical needs) score (Day 7): 6 | BIMF item 13 (taking good care of my physical needs) score (Day 7): 5 | BIMF item 14 (good decisions about my baby's health and well being) score (Day 7): 6 | BIMF item 15 (My baby and I are getting into a routine) score (Day 7): 6 and 5 | BIMF item 16 (I worry about how other people judge me) score (Day 7): 5 | BIMF item 17 (able to take care of my baby and my other responsibilities) score (Day 7): 5 | BIMF item 18 (Anxiety or worry often interferes with my mothering ability) score (Day 7): 5 | BIMF item 19 (getting better at taking care of my baby) score (Day 7): 1 and 6 | BIMF item 20 (satisfied with the job I am doing as a new mother) score (Day 7): 5 | BIMF total score improvement, percent (Day 7): 14% and over 40% | BPRS anxiety improvement (Day 7): 6 and 5 | BPRS anxiety score (Day 7): 1 | BPRS blunted affect improvement (Day 7): 0 and 4 | BPRS blunted affect score (Day 7): 1 | BPRS conceptual disorganization improvement (Day 7): 0 and 3 | BPRS conceptual disorganization score (Day 7): 1 | BPRS depressive mood improvement (Day 7): 5 and 4 | BPRS depressive mood score (Day 7): 1 | BPRS disorientation improvement (Day 7): 0 | BPRS disorientation score (Day 7): 1 | BPRS emotional withdrawal improvement (Day 7): 4 and 5 | BPRS emotional withdrawal score (Day 7): 1 | BPRS excitement improvement (Day 7): 1 and 0 | BPRS excitement score (Day 7): 1 | BPRS grandiosity improvement (Day 7): 0 | BPRS grandiosity score (Day 7): 1 | BPRS guilt feelings improvement (Day 7): 5 | BPRS guilt feelings score (Day 7): 1 | BPRS hallucinatory behaviour improvement (Day 7): 0 | BPRS hallucinatory behaviour score (Day 7): 1 | BPRS hostility improvement (Day 7): 0 and 3 | BPRS hostility score (Day 7): 1 | BPRS mannerisms and posturing improvement (Day 7): 0 | BPRS mannerisms and posturing score (Day 7): 1 | BPRS motor retardation improvement (Day 7): 0 and 2 | BPRS motor retardation score (Day 7): 1 | BPRS somatic concern improvement (Day 7): 5 and 0 | BPRS somatic concern score (Day 7): 1 | BPRS suspiciousness improvement (Day 7): 0 | BPRS suspiciousness score (Day 7): 1 | BPRS tension improvement (Day 7): 5 and 3 | BPRS tension score (Day 7): 1 | BPRS uncooperativeness improvement (Day 7): 0 | BPRS uncooperativeness score (Day 7): 1 | BPRS unusual thought content improvement (Day 7): 0 | BPRS unusual thought content score (Day 7): 1 | MADRS apparent sadness improvement (Day 7): 5 and 4 | MADRS apparent sadness score (Day 7): 0 | MADRS concentration difficulties improvement (Day 7): 0 and 4 | MADRS concentration difficulties score (Day 7): 0 | MADRS inability to feel improvement (Day 7): 3 and 4 | MADRS inability to feel score (Day 7): 0 | MADRS inner tension improvement (Day 7): 4 | MADRS inner tension score (Day 7): 1 and 0 | MADRS lassitude improvement (Day 7): 3 and 4 | MADRS lassitude score (Day 7): 0 | MADRS pessimistic thoughts improvement (Day 7): 4 | MADRS pessimistic thoughts score (Day 7): 0 | MADRS reduced appetite improvement (Day 7): 0 and 6 | MADRS reduced appetite score (Day 7): 0 | MADRS reduced sleep improvement (Day 7): 5 | MADRS reduced sleep score (Day 7): 0 | MADRS reported sadness improvement (Day 7): 4 and 5 | MADRS reported sadness score (Day 7): 0 | MADRS suicidal thoughts improvement (Day 7): 0 and 1 | MADRS suicidal thoughts score (Day 7): 0 | Total MADRS improvement (Day 7): 41 | Total MADRS score (Day 7): 0 | BIMF TOTAL Δ (Day 7 vs Day 0): 13 and 45 | BIMF domain Adjustment Δ (Day 7 vs Day 0): 1 and 9 | BIMF domain Infant Care Δ (Day 7 vs Day 0): 0 | BIMF domain Management Δ (Day 7 vs Day 0): 5 and 13 | BIMF domain Mother-Child Interaction Δ (Day 7 vs Day 0): 2 and 7 | BIMF domain Psychological Well-being Δ (Day 7 vs Day 0): 9 and 27 | BIMF domain Self-Care Δ (Day 7 vs Day 0): 4 and 10 | BIMF domain Social Support % Improvement (Day 7 vs Day 0): approx. 27% and 27% | BIMF domain Social Support Δ (Day 7 vs Day 0): 1 and 3 | BIMF item 1 (I am a good mother) Δ (Day 7 vs Day 0): 0 and 1 | BIMF item 2 (I feel rested) Δ (Day 7 vs Day 0): 2 and 4 | BIMF item 3 (comfortable with the way I've chosen to feed my baby) Δ (Day 7 vs Day 0): 0 and 1 | BIMF item 4 (My baby and I understand each other) Δ (Day 7 vs Day 0): 0 and 1 | BIMF item 5 (able to relax and enjoy time with my baby) Δ (Day 7 vs Day 0): 1 and 5 | BIMF item 6 (people I can trust to care for my baby when I need a break) Δ (Day 7 vs Day 0): 0 | BIMF item 8 (getting enough adult interaction) Δ (Day 7 vs Day 0): 0 and 1 | BIMF item 9 (getting enough encouragement from other people) Δ (Day 7 vs Day 0): 1 and 2 | BIMF item 10 (I trust my own feelings (instincts)) Δ (Day 7 vs Day 0): 1 and 2 | BIMF item 11 (a little time each week to do something for myself) Δ (Day 7 vs Day 0): 1 and 2 | BIMF item 12 (taking good care of my baby's physical needs) Δ (Day 7 vs Day 0): 0 | BIMF item 13 (taking good care of my physical needs) Δ (Day 7 vs Day 0): 1 and 4 | BIMF item 14 (good decisions about my baby's health and well being) Δ (Day 7 vs Day 0): 0 | BIMF item 15 (My baby and I are getting into a routine) Δ (Day 7 vs Day 0): 1 | BIMF item 16 (I worry about how other people judge me) Δ (Day 7 vs Day 0): 2 and 4 | BIMF item 17 (able to take care of my baby and my other responsibilities) Δ (Day 7 vs Day 0): 0 and 3 | BIMF item 18 (Anxiety or worry often interferes with my mothering ability) Δ (Day 7 vs Day 0): 3 and 5 | BIMF item 19 (getting better at taking care of my baby) Δ (Day 7 vs Day 0): 1 and 6 | BIMF item 20 (satisfied with the job I am doing as a new mother) Δ (Day 7 vs Day 0): −1 and 4 | BPRS anxiety improvement (discharge): 6 and 5 | BPRS anxiety score (discharge): 1 | BPRS blunted affect improvement (discharge): 0 and 4 | BPRS blunted affect score (discharge): 1 | BPRS conceptual disorganization improvement (discharge): 0 and 3 | BPRS conceptual disorganization score (discharge): 1 | BPRS depressive mood improvement (discharge): 5 and 4 | BPRS depressive mood score (discharge): 1 | BPRS disorientation improvement (discharge): 0 | BPRS disorientation score (discharge): 1 | BPRS emotional withdrawal improvement (discharge): 4 and 5 | BPRS emotional withdrawal score (discharge): 1 | BPRS excitement improvement (discharge): 1 and 0 | BPRS excitement score (discharge): 1 | BPRS grandiosity improvement (discharge): 0 | BPRS grandiosity score (discharge): 1 | BPRS guilt feelings improvement (discharge): 5 | BPRS guilt feelings score (discharge): 1 | BPRS hallucinatory behaviour improvement (discharge): 0 | BPRS hallucinatory behaviour score (discharge): 1 | BPRS hostility improvement (discharge): 0 and 3 | BPRS hostility score (discharge): 1 | BPRS mannerisms and posturing improvement (discharge): 0 | BPRS mannerisms and posturing score (discharge): 1 | BPRS motor retardation improvement (discharge): 0 and 2 | BPRS motor retardation score (discharge): 1 | BPRS somatic concern improvement (discharge): 5 and 0 | BPRS somatic concern score (discharge): 1 | BPRS suspiciousness improvement (discharge): 0 | BPRS suspiciousness score (discharge): 1 | BPRS tension improvement (discharge): 3 | BPRS tension score (discharge): 1 | BPRS uncooperativeness improvement (discharge): 0 | BPRS uncooperativeness score (discharge): 1 | BPRS unusual thought content improvement (discharge): 0 | BPRS unusual thought content score (discharge): 1
